Results as given in patent publication US20250129120A1, “PEPTIDE HAVING ACTIVITY FOR PREVENTING HAIR LOSS OR PROMOTING HAIR GROWTH, AND USE THEREOF” (CAREGEN CO., LTD., priority 2021, published 2025).

Experiments:
[1] = system: DKK-1 protein (dickkopf-related protein 1); assay: Western blotting of DKK-1 protein in DHT-treated HHFDPC; type: cell-based, human; conditions: HHFDPC with DHT 100 nM; peptide 500 nM, 5 μM, and 50 μM; 24 hours; vs negative control (DHT only); FIG. 5
Experimental: DKK-1 protein (dickkopf-related protein 1) is a hair loss-related protein known to be highly expressed in individuals with hair loss, especially male pattern hair loss, and its expression is known to be promoted by hormones such as DHT (Dihydrotestosterone). Accordingly, the expression of DKK-1 protein was induced by treating HHFDPC cells with DHT together with the peptide according to the Preparation Example of the present invention, and then the expression level of DKK-1 was measured through Western blotting to determine whether there was an effect of suppressing the expression of DKK-1 protein.
Specifically, HHFDPC as in [Experiment Example 1-1] was seeded in a 6-well culture plate at 4×10^5 cells/well and then cultured in MSC complete medium (mesenchymal stem cell complete media) for 24 hours. Next, the medium was replaced with serum free MSC complete medium and cultured again for 24 hours. In addition, the HHFDPC was treated with the peptide of SEQ ID NO: 1 prepared in Preparation Example at concentrations of 500 nM, 5 μM, and 50 μM, respectively, and at this time, DHT, an expression inducer of DKK-1 protein, was simultaneously treated at a concentration of 100 nM and then cultured at 37° C. for 24 hours. […] After washing again with 0.1% PBS-T (0.1% Tween-20 in PBS) three times for 15 minutes each, DKK-1 protein was detected by treatment with ECL solution (GE Healthcare, USA).

[2] = system: LEF-1; assay: RT-PCR of LEF-1 expression in HHFDPC; type: cell-based, human; conditions: peptide 500 nM, 5 μM, and 50 μM, 24 hours, FIG. 4
Experimental: (§1) Furthermore, in order to determine whether the β-catenin moves to the nucleus and is activated to affect proliferation and differentiation, whether the expression of LEF-1, c-Myc and cyclin D1 (cyclin D1), which act as downstream factors, increases with β-catenin activation was confirmed through RT-PCR. Specifically, in the same manner as the previous Western blotting experiment, HHFDPC cells were cultured, treated with the peptides of the Preparation Example of the present invention at concentrations of 500 nM, 5 μM, and 50 μM, respectively, and cultured at 37° C. for 24 hours. After washing the cells with PBS, RNA was isolated by treating them with 300 […] of easy blue (intron, Korea). Then, CDNA was synthesized using a cDNA synthesis kit (enzynomics, Korea) by quantifying it with nano drop, and PCR was performed using primers for LEF-1, c-Myc and cyclin D1 (base sequences of the primer are listed in Table 2 below) and PCR premix (enzynomics, Korea). Electrophoresis was performed on a 1.5% agarose gel, and then the mRNA of LEF-1, c-Myc and cyclin D1 was detected using a band analysis system (Bio-Rad gel image system).

[3] = system: β-catenin; assay: Western blotting of β-catenin moved to the nucleus in HHFDPC; type: cell-based, human; conditions: HHFDPC nuclear protein, peptide 500 nM, 5 μM, and 50 μM, 24 hours, FIG. 3
Experimental: In addition, in addition to p-AKT and p-ERK, in order to confirm the activation of β-catenin, which is known to affect cell proliferation and differentiation, whether β-catenin moved into the nucleus was confirmed through Western blotting. Specifically, the HHFDPC as in [Experiment Example 1-1] was seeded in a 6-well culture plate at an amount of 4×10^5 cells/well, cultured in MSC complete medium (mesenchymal stem cell complete media) for 24 hours. Next, the medium was replaced with serum free MSC complete medium and cultured again for 24 hours. Then, the HHFDPC was treated with the peptide of SEQ ID NO: 1 prepared in the Preparation Example at concentrations of 500 nM, 5 μM, and 50 μM, respectively, and cultured at 37° C. for 24 hours. As a positive control, minoxidil was treated at a concentration of 1 μM, and as a negative control, HHFDPC without any treatment was used. After washing with PBS, proteins in the nucleus were isolated using a nuclear protein extraction kit (Thermo scientific, USA). After electrophoresis using a 10% SDS-PAGE gel, it was transferred to a PVDF membrane and blocked using 5% skim milk at room temperature for 30 minutes. […] After washing again with 0.1% PBS-T (0.1% Tween-20 in PBS) three times for 15 minutes each, β-catenin was detected by treatment with ECL solution (GE Healthcare, USA).

[4] = system: Ha3-II; assay: RT-PCR of Ha3-II expression in HHORSC; type: cell-based, human; conditions: peptide 500 nM, 5 µM, and 50 μM, 72 hours, FIG. 6
Experimental: (§2) Specifically, HHORSC (human hair outer root sheath cell, Sciencell, USA) was seeded in a 6-well culture plate at 4×10^5 cells/well and then cultured in MSC complete medium (mesenchymal stem cell complete media) for 24 hours. Next, the medium was replaced with serum free MSC complete medium and cultured again for 24 hours. Then, the HHORSC was treated with the peptide of SEQ ID NO: 1 prepared in the Preparation Example at concentrations of 500 nM, […], and 50 μM, respectively, and cultured at 37° C. for 72 hours. As a positive control, EGF was treated at a concentration of 50 nM, and as a negative control, HHORSC without any treatment was used. After washing with PBS, RNA was isolated by treating with 300 ? of easy blue (intron, Korea). Then, cDNA was synthesized using a cDNA synthesis kit (enzynomics, Korea) by quantification using nano drop, and PCR was performed using primers for Ha3-II, Keratin 14, and Keratin 19 (the base sequences of primer are shown in Table 3 below) and PCR premix (enzynomics, Korea). Electrophoresis was performed on a 1.5% agarose gel, and the mRNAs of Ha3-II, Keratin 14, and Keratin 19 were detected using a band analysis system (Bio-Rad gel image system).

[5] = system: cyclin D1; assay: RT-PCR of cyclin D1 expression in HHFDPC; type: cell-based, human; conditions: peptide 500 nM, 5 μM, and 50 μM, 24 hours, FIG. 4
Experimental: as §1

[6] = system: p-ERK; assay: Western blotting of phosphorylated ERK in HHFDPC; type: cell-based, human; conditions: peptide 500 nM, 5 μM, and 50 µM, 24 hours, FIG. 2
Experimental: (§3) First, phosphorylated forms of AKT and ERK, which act as signaling molecules related to the proliferation of HHFDPC, were confirmed through Western blotting. Specifically, HHFDPC as in [Experiment Example 1-1] above was seeded at 4×10^5 cells/well in a 6-well culture plate, cultured in MSC complete medium (mesenchymal stem cell complete media) for 24 hours, and then the medium was replaced with serum free MSC complete medium and cultured for another 24 hours. Then, the HHFDPC was treated with the peptide of SEQ ID NO: 1 prepared in the Preparation Example at concentrations of 500 nM, 5 μM, and 50 µM, respectively, and cultured at 37° C. for 24 hours. As a positive control, minoxidil was treated at a concentration of 1 μM, and as a negative control, HHFDPC without any treatment was used. Then, Western blotting was performed to detect phosphorylated AKT and phosphorylated ERK. After washing with PBS, the cells were treated with 100 ? of lysis buffer to destroy cells, thereby obtaining cell lysate. After electrophoresis using a 10% SDS-PAGE gel, it was transferred to a PVDF membrane and blocked using 5% skim milk at room temperature for 30 minutes. […] After washing again with 0.1% PBS-T (0.1% Tween-20 in PBS) three times for 15 minutes each, p-AKT and p-ERK were detected by treatment with ECL solution (GE Healthcare, USA).

[7] = system: HHFDPC (human hair follicle dermal papilla cells); assay: MTT proliferation assay in dermal papilla cells; type: cell-based; conditions: peptide 500 nM, 5 μM, and 50 μM, 72 hours, vs untreated control, FIG. 1
Experimental: While culturing human hair follicle dermal dermal papilla cells (HHFDPC), the absorbance was measured after treatment with the peptide of the present invention to confirm whether there was an effect of promoting the proliferation of the HHFDPC dermal papilla cells.
Specifically, HHFDPC (Sciencell, USA) was seeded at 4×10^3 cells/well in a 96-well culture plate, cultured in MSC complete medium (mesenchymal stem cell complete media, Sciencell, USA) for 24 hours, and then the medium was replaced with serum free MSC complete medium and cultured for another 24 hours. Then, the HHFDPC was treated with the peptide of SEQ ID NO: 1 prepared in the Preparation Example at concentrations of 500 nM, 5 μM, and 50 μM, respectively, and cultured at 37° C. for 72 hours. As a positive control, minoxidil was treated at a concentration of 1 μM, and as a negative control, HHFDPC without any treatment was used. Then, 10 ? of 5 mg/mL MTT solution was added and cultured in a 37° C. CO2 incubator for 4 hours to stain the cells. After removing the medium, the cells were treated with 100 μl of DMSO and shaken for 10 minutes, and the number of HHFDPC cells was confirmed by measuring absorbance at a wavelength of 540 nm using a spectrophotometer.

[8] = system: c-Myc; assay: RT-PCR of c-Myc expression in HHFDPC; type: cell-based, human; conditions: peptide 500 nM, 5 μM, and 50 μM, 24 hours, FIG. 4
Experimental: as §1

[9] = system: p-AKT; assay: Western blotting of phosphorylated AKT in HHFDPC; type: cell-based, human; conditions: peptide 500 nM, 5 μM, and 50 µM, 24 hours, FIG. 2
Experimental: as §3

[10] = system: Keratin 14; assay: RT-PCR of Keratin 14 expression in HHORSC; type: cell-based, human; conditions: peptide 500 nM, and 50 μM, 72 hours, FIG. 6
Experimental: as §2

[11] = system: Keratin 19; assay: RT-PCR of Keratin 19 expression in HHORSC; type: cell-based, human; conditions: peptide 500 nM, and 50 μM, 72 hours, FIG. 6
Experimental: as §2

[12] = system: MSX2; assay: RT-PCR of MSX2 expression in HHGMC; type: cell-based, human; conditions: peptide 500 nM, 5 μM, and 50 μM, 72 hours, FIG. 7
Experimental: Specifically, HHGMC (human hair germinal matrix cell, Sciencell, USA) was seeded in a 6-well culture plate at 4×10^5 cells/well and then cultured in MSC complete medium (mesenchymal stem cell complete media) for 24 hours. Next, the medium was replaced with serum free MSC complete medium and cultured again for 24 hours. Then, the HHGMC was treated with the peptide of SEQ ID NO: 1 prepared in the Preparation Example at concentrations of 500 nM, 5 μM, and 50 μM, respectively, and cultured at 37° C. for 72 hours. As a positive control, EGF was treated at a concentration of 50 nM, and as a negative control, HHGMC without any treatment was used. After washing with PBS, RNA was isolated by treating with 300 ? of easy blue (intron, Korea). Next, cDNA was synthesized using a cDNA synthesis kit (enzynomics, Korea) by quantification using nano drop, and PCR was performed using primers for MSX2 (base sequences of the primer are listed in Table 4 below) and PCR premix (enzynomics, Korea). Electrophoresis was performed on a 1.5% agarose gel, and MSX2 mRNA was detected using a band analysis system (Bio-Rad gel image system).

GGVPG [peptide of the present invention]
amount of DKK-1 protein [1]: reduced | amount of LEF-1 mRNA [2]: increased further compared to the control group without any treatment | migration of β-catenin to the nucleus (activation of β-catenin) [3]: migration due to activation of β-catenin increased | amount of Ha3-II mRNA [4]: increased further compared to the control group that did not receive any treatment | amount of cyclin D1 mRNA [5]: increased further compared to the control group without any treatment | phosphorylation of ERK (p-ERK) [6]: increased compared to the control group not treated with the peptide | proliferation of HHFDPC (absorbance at 540 nm, MTT) [7]: promoted depending on the concentration of the treated peptide | amount of c-Myc mRNA [8]: increased further compared to the control group without any treatment | phosphorylation of AKT (p-AKT) [9]: increased compared to the control group not treated with the peptide | amount of Keratin 14 mRNA [10]: increased further compared to the control group that did not receive any treatment | amount of Keratin 19 mRNA [11]: increased further compared to the control group that did not receive any treatment | amount of MSX2 mRNA [12]: increased further compared to the untreated control group
